Measurements: patent US20100069504A1, “AMINOBENZOCYCLOHEPTENE DERIVATIVES, METHODS FOR PREPARING THE SAME AND USES THEREOF IN THERAPY” (UNIVERSITE DE HAUTE ALSACE, priority 2006, published 2010)
Where a name gives a salt, the structure may show the parent alone. Read-outs that look alike come from different tables or passages of the source.

Legend:
[1] = target: T1, AP-N (EC3.4.11.2) (Sus scrofa, UniProt P15145); assay: AP-N inhibitory activity, inhibition constant Ki by spectrophotometry (Dixon method); format: biochemical, porcine; details: L-leucine para-nitroanilide substrate, 30° C., pH=7.5; hydrochloride, racemic mixture
T1 construct: The AP-N is purified in a soluble form according to the method described by Wacker; purchased Sigma Chemical Corporation; host or cells: porcine livers (tissue)
T1 sequence (P15145 33-963 limits assumed): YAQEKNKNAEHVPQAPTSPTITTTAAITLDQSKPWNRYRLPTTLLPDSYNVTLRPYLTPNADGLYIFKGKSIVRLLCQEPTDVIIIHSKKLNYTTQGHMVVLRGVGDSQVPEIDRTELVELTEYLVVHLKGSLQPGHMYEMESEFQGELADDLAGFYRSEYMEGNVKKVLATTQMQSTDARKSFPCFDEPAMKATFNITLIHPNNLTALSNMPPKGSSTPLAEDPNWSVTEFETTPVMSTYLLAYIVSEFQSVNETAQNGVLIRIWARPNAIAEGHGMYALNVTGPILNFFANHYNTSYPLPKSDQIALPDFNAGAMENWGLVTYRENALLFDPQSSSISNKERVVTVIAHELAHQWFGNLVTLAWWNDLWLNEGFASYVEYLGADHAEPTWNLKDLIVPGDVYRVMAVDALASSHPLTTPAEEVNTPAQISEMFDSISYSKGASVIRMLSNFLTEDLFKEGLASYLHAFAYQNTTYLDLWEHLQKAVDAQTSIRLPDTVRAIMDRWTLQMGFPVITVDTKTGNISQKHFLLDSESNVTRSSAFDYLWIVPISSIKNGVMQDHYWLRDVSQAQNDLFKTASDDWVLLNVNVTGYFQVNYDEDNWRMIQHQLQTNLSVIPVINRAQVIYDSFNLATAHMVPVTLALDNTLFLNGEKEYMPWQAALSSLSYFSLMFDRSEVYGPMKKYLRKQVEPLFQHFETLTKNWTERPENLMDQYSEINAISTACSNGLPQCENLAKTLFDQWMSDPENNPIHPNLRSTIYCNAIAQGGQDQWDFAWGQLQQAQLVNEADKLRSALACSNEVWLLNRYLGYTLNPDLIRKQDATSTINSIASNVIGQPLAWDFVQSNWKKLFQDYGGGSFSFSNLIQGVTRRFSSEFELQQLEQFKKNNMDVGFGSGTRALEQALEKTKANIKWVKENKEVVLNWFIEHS
Excerpt: (§1) LTA4H has an aminopeptidase type activity similar to AP-N and a very close substrate specificity. It is important for the AP-N inhibitory molecules neither to inhibit LTA4H nor aminopeptidases that contain a co-catalytic unit like LAPc.
(§2) The LAPc enzymes from bovine livers and AP-N from porcine livers are marketed by Sigma Chemical Corporation. The AP-N is purified in a soluble form according to the method described by Wacker, H., Lecky, P., Fischer E. H., Stein, E. A. Hely. Chim.
(§3) The kinetic studies are carried out at 30° C. and the reactions are started up by adding the enzymes in 1 mL of test medium: LAPc, 5 units in 10 mM Tris-HCl, 0.1 mM ZnCl2, 5 mM MnCl2, 1 M KCl, pH=8.0; AP-N, 25 mUnits in 10 mM Tris-HCl, pH=7.5 and LTA4H, 5 μg in 10 mM Tris-HCl, 0.1 mM KCl, pH=7.5.
(§4) All the inhibitory molecules are assessed as an hydrochloride and in racemic mixture.

[2] = target: T2, human recombinant leukotriene A4 hydrolase (LTA4H) (EC3.3.2.6) (Homo sapiens, UniProt P09960); assay: LTA4H aminopeptidase inhibition, Ki by spectrophotometry (Dixon method); format: biochemical; details: alanine para-nitroanilide substrate, 30° C., pH=7.5; hydrochloride, racemic mixture
T2 sequence (P09960 1-611): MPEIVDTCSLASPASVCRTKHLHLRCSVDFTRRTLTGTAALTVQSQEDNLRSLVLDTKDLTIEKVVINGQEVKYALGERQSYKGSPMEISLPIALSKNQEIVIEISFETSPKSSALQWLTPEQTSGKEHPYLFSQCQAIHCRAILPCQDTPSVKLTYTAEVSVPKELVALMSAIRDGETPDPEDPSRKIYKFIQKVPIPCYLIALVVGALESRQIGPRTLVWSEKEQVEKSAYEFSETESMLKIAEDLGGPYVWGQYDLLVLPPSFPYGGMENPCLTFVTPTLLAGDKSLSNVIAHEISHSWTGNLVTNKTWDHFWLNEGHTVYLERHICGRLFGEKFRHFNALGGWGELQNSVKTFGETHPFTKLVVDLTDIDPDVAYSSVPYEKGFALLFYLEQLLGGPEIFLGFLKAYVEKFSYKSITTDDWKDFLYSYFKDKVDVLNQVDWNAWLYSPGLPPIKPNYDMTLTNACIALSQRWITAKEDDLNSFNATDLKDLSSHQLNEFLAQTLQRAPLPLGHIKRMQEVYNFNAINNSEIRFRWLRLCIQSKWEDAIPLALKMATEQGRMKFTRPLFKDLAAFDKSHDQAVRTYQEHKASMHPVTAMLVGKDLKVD
Procedure: as §1, §3, §4

[3] = target: T3, cytosolic leucine aminopeptidase (LAPc) (EC3.4.11.1) (Bos taurus, UniProt P00727); assay: LAPc inhibition, Ki by spectrophotometry (Dixon method); format: biochemical, bovine
T3 construct: The LAPc enzymes from bovine livers; purchased Sigma Chemical Corporation; host or cells: bovine livers (tissue)
T3 sequence (P00727 1-519): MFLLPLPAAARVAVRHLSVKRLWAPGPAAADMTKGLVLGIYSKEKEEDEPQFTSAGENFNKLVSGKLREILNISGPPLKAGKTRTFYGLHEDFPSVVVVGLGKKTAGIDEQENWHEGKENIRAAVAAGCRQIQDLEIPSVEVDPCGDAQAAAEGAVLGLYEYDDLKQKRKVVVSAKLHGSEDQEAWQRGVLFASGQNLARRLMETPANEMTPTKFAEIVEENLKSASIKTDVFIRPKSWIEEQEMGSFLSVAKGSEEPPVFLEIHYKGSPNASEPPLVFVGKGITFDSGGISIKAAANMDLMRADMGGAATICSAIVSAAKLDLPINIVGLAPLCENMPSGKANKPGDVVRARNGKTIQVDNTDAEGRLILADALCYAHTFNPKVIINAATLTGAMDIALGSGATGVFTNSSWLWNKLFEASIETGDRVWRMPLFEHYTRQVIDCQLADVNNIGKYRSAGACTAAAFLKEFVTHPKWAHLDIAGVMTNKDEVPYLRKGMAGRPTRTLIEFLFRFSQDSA
Excerpt: as §1, §2, §3, §4

[4] = target: T4, AP-N from porcine livers (Sus scrofa, UniProt P15145); assay: Stability in aqueous solution, followed by AP-N inhibition over at least 10 hours; format: biochemical; details: read-out: inhibition of AP-N throughout the test
T4 construct: The AP-N is purified in a soluble form according to the method described by Wacker; purchased Sigma Chemical Corporation; host or cells: porcine livers (tissue)
T4 sequence (P15145 33-963 limits assumed): T1 sequence (P15145 33-963 limits assumed)
Procedure: The enzymatic tests are carried out at 25° C. in 20 mM Tris-HCl, pH=7.5 with 0.2 mM L-leucine para-nitroanilide as a substrate, in a total reaction volume of 1 mL. […] The reaction is started up by adding 3 milliunits of AP-N from porcine livers.
Under these experimental conditions, the linear kinetics is monitored for at least 10 hours.

[5] = L-leucine para-nitroanilide substrate, 30° C., pH=8.0, hydrochloride, racemic mixture, read-out: Ki (M) LAPc (EC3.4.11.1)

Ki [1]	Ki [2]	Ki [3, 5]	melting point	Compound	inhibition at 200 µM [4]	Ki [3]
12 µM	> 1000 µM	> 0.001 M	156 to 158 °C	Cl.NC1CCc2ccccc2C(CCCc2ccccc2)C1=O (racemic) [EX 6, 5-phenylpropyl-7-amino-5,7,8,9-tetrahydro-benzocyclohepten-6-one hydrochloride]		
			270 to 280 °C	Cl.NC1CCc2ccccc2CC1=NO (stereo not drawn)		
	> 1000 µM	> 0.001 M		NC1CCc2c(Br)cccc2CC1=O (racemic) [EX 9, 7-amino-1-bromo-5,7,8,9-tetrahydro-benzocyclohepten-6-one hydrochloride]		
	> 1000 µM	2e-05 M		NC1CCc2cccc(-c3ccccc3)c2CC1=O (racemic) [EX 7, 7-amino-4-phenyl-5,7,8,9-tetrahydro-benzocyclohepten-6-one hydrochloride]		
0.3 µM	> 1000 µM	> 0.001 M		NC1CCc2ccccc2C(F)C1=O (racemic) [EX 3, 7-amino-5-fluoro-5,7,8,9-tetrahydro-benzocyclohepten-6-one hydrochloride]		
0.08 µM	> 1000 µM	> 0.001 M		NC1CCc2ccccc2C(SCc2ccccc2)C1=O (racemic) [EX 8, 5-benzylsulphanyl-7-amino-5,7,8,9-tetrahydro-benzocyclohepten-6-one hydrochloride]		

Compound	Ki [1]	Ki [2]	Ki [3, 5]	melting point	inhibition at 200 µM [4]	Ki [3]
Cl.NC1CCc2ccccc2CC1=O (racemic) [EX 2, 7-amino-5,7,8,9-tetrahydro-benzocyclohepten-6-one hydrochloride]	1 µM	> 1000 µM	> 0.001 M		50%	
NC1Cc2ccccc2CC1=O (racemic) [EX 10, 2-amino-3-tetralone, reference compound]		> 1000 µM				0.00012 M
